This note sets out measurements from US20030216471A1, “Retinoid formulations for aerosolization and inhalation” (priority 2003, published 2003).

Molecules are shown by their SMILES. Entries after “also recorded” stand apart in the source; their conditions may differ.

In test [1] the test system is RARα. The test is described as follows: Western blot of SENCAR mouse liver, dietary RA 75 weeks, RAR α. Conditions: for RARα densitometry of Western blots: liver. The format is in vivo. As for the experimental part:
(§1) Tissues were collected, frozen in dry ice and kept at −70° C. until used. 500 mg aliquots were diced in small pieces and homogenized in 300 μl of cold PBS, using the hand held homogenizer for 2˜3 minutes. Sample and washes were centrifuged at 5000×g for 20 minutes. The pellet was suspended in 400 μl of ice-cold Buffer A [2 μl 0.5M EDTA, 10 μl 100 mM EGTA, 50 μl 100MM PMSF, 10 μl 1M DTT, 10 ml (10 mM HEPES pH 7.9+10 mM KCl)], and left at ice temperature for 15 minutes. 25 μl of 10% solution of NP-40 was added and samples were mixed in a vortex vigorously for 10 seconds. Samples were centrifuged at 14,000×g for 1 minute at 4° C. and the pellet treated once more in this fashion (resuspended etc.). The supernatant was removed and 100 μl of ice-cold Buffer C [4 μl 0.5M EDTA, 20 μl 100 mM EGTA, 20 μl 100 mM PMSF, 2 μl 1M DTT, 2 ml (20 mM HEPES pH 7.9+0.4M NaCl)] was added. Pellets were resuspended by tapping gently on the bottom of the Eppendorf tubes. Samples were rocked vigorously in a bucket of ice on an orbital shaker for 30 minutes. Samples were centrifuged at 14,000×g for 5 minutes at 4° C.
(§2) Samples were prepared by adding one part of the Sample Buffer to one part of the sample and mixing well. Samples were heated at 95° C. for 5 minutes to induce denaturation. 5 μl of Rainbow Standard and 5 μl of Biotinylated Molecular Marker were added to parallel wells. 20 μg protein per sample was loaded in each lane. Electrophoresis was performed with voltage set at 125V for about 1˜1.5 hours. Gel transfer was executed at 25V for 2 hours. The membrane was stained in Ponceau S. for 5 minutes and destained with one wash of 5% acetic acid. The membrane was then washed in TBS solution until the staining disappeared. Membranes were incubated in 1 ml blocking solution and 9 ml TBS for 60 minutes. Membranes were incubated in 1 ml of blocking solution and 19 ml TBS along with 20 μl primary antibody solution overnight (dilution of 1:1000). Membranes were washed in PBS-Tween 20, 3 times for 10 minutes each. […]
For orientation: Immunoblotting shows a protein as a band on a membrane.

The subject of the next test is lung tissue RARs. The test is described as follows: SENCAR mouse lung tissue RARs, dietary RA. The format is in vivo. The procedure:
(§3) SENCAR mice (30) were divided into six experimental groups.
as §1
(§4) Samples were prepared by adding one part of the Sample Buffer to one part of the sample and mixing well. Samples were heated at 95° C. for 5 minutes to induce denaturation. […]

Test [2] relates to RARα. The test is described as follows: Immunohistochemical analysis of SENCAR mouse liver, dietary RA. The format is in vivo. Conditions: pharmacological RA diet compared to physiological RA, 75 weeks. As for the experimental part: Liver tissue (approximately 300 mg) was fixed in 10% formalin, embedded in paraffin and 5 μm sections were used for immunohistochemistry. Staining for RAR was similar to our previously described protocol {8656}. ABC kit Mouse/Rabbit IgG and DAB Substrate kit were used (Vector Laboratories Inc., 30 Ingold Road Burlingame, Calif.).

The test system of the next test is RAR γ. The test is described as follows: Time course of dietary RA effect on SENCAR mouse liver RAR γ. The format is in vivo. Conditions: pharmacological dietary RA over physiological RA, day 1. As for the experimental part: as §3, §1, §4
For the next test, the system named is RARγ. The test can be described thus: Western blot of SENCAR mouse liver, dietary RA 75 weeks, RAR γ. Conditions: for RARγ densitometry of Western blots: liver. Format: in vivo. The procedure: as §1, §2
The next test concerns RAR α. The test can be described thus: Time course of dietary RA effect on SENCAR mouse liver RAR α. Format: in vivo. To be noted: pharmacological dietary RA over physiological RA, day 1. The procedure:
as §3, §1, §4

Another test concerns RARβ. The test can be described thus: Western blot of SENCAR mouse liver, dietary RA 75 weeks, RAR β. The format is in vivo. To be noted: for RARβ densitometry of Western blots: liver. As for the experimental part:
as §1, §2

The subject of the next test is TGase II. The test is described as follows: TGase II activity in cultured human breast cancer MCF-7 cells. The format is cell-based. The procedure: Cells were harvested and Transglutaminase II activity was measured as described below. Nebulizer solution, inhalation procedures, details of animal housing are described below.
Cultured cells were placed in 100 μl scraping buffer [A: 2800 μl (400 μl 0.5M Na-Phosphate, 500 μl 0.01M EDTA, 100 μl 1M DTT, 9 ml PBS total 10 ml)+B:700 μl (10 μl 20 mg/ml PMSF 790 μl PBS total 800 μl)] for each dish. Cells were broken by a sonicator and kept in ice until used. TGase II assay was conducted as described below and previously {8217}.
Enzyme assay mixtures were prepared by adding 80 μl of SUBSTRATE mixture (322.8 μl H2O, 120 μl 0.5M NaBorate, 60 μl 0.01M EDTA, 60 μl 0.1M CaCl2, 6 μl 1M DTT, 240 μl dimethyl casein, 30 μl Triton X-100, 1.21 μl [^3H]-Putrescine, 120 μl Putrescine) to 20 μl sample, 20 μl scraping buffer for blank control, 20 μl (18 μl scraping buffer+2 μl TGase II) for positive control. Samples were mixed in 15 ml tubes, the tubes were shaken before putting them into a 28° C. water bath for 30 minutes. Reactions were slowed down in an ice bath. 80 μl of the incubation mixture was adsorbed onto paper disks. These were immediately dropped into cold 10% TCA (0.1% Putrescine) and washed with agitation for 7 minutes, followed by 2 additional washes with 5% TCA (0.05% putrescine) for 5-7 minutes, and once more with cold (−20° C.) 95% ethanol for 5 minutes. Paper disks were dried and placed into 5 ml Aquasol, and counted in a Liquid Scintillation Counter. Protein concentration determination was conducted by the Bradford method.

The next test relates to RAR β. The test can be described thus: Time course of dietary RA effect on SENCAR mouse liver RAR β. The format is in vivo. To be noted: pharmacological dietary RA over physiological RA, day 1. The procedure: as §3, §1, §4
[3] abbreviates: dietary RA 30 μg/g vs 3 μg/g diet, male SENCAR mice.

On to `CC1=C(/C=C/C(C)=C/C=C/C(C)=C/C(=O)O)C(C)(C)CCC1` [RA, all-trans-retinoic acid], for which the “upregulation of liver RAR (first named, α)” value in the test with RARα [1] (setting [3]) is reported as 21.8 fold. The “RARα densitometry of Western blots” value in the test with RARα [1] (RA diet 3 μg/g) is listed as 12.1+/−7.2 IDV; in the test with RARα [1] (RA diet 30 μg/g), 264+/−21.3 IDV. Further, the “effect of dietary RA on lung tissue RARs” value with lung tissue RARs (long term feeding of 30 μg/g diet, SENCAR mouse) is listed as “failed to induce”; in the test with lung tissue RARs (time course, 1 to 28 days, 30 μg/g diet, not shown), “without any measurable effect; also recorded: no effect”. The “RARα immunohistochemical staining in liver nuclei” value in the test with RARα [2] is “striking increase of RAR expression; also recorded: marked increase in staining”. Further, the “stimulation of liver RAR (third named, γ)” value in the test with RAR γ is 2.1 fold. Also, in the test on RARγ (setting [3]), the “upregulation of liver RAR (third named, γ)” value came to 12.5 fold. The figures for the “RARγ densitometry of Western blots” value in the test with RARγ (RA diet 3 μg/g) and with RARγ (RA diet 30 μg/g) were 23.1+/−6.7 IDV and 288+/−17.4 IDV, respectively. Further, in the test on RAR α, the “stimulation of liver RAR (first named, α)” value is 2 fold. In the test with RARβ (setting [3]), the “upregulation of liver RAR (second named, β)” value came out at 13.5 fold. Moreover, the “RARβ densitometry of Western blots” value in the test on RARβ (RA diet 3 μg/g) is 18.9+/−7.4 IDV; with RARβ (RA diet 30 μg/g), 254+/−31.9 IDV. Besides, in the test with TGase II (MCF-7 cells treated at 10^−6 M for 72 hours, DMSO control 0.183), the “TGase II Activity” value is listed as 1.359+/−0.098 picomoles/μg protein/30 minutes. The “stimulating TGase II activity” value in the test with TGase II (MCF-7 cells, 10^−6 M, 72 hours, over DMSO) was determined as 7.4 Fold. Moreover, the “stimulation of liver RAR (second named, β)” value with RAR β is recorded as 4 fold.
